Test [1] concerns the target Angiotensin II receptor (Rattus norvegicus) (UniProt P29089+P25095+P35351). As to the kind of experiment: Inhibition of pressor response induced by Angiotensin II in Alderley Park Wistar rats after single intravenous dose. The test is classed as functional.
Test [2] addresses angiotensin II receptor (Cavia porcellus). Briefly: Displacement of monoiodinated angiotensin II from guinea-pig adrenal gland angiotensin II receptor.

As to `CCCCc1nc2ccccc2n1Cc1ccc(-c2ccccc2-c2nn[nH]n2)cc1`, the 50% effective dose (ED50) (as a rule, the midpoint of the dose-response relation) in test [1] is 5.2 mg/kg.

In test [1], `CCCCc1nc2ccnc(O)c2n1Cc1ccc(-c2ccccc2-c2nn[nH]n2)cc1` came in with an ED50 of 0.35 mg/kg. Besides, the concentration for half-maximal inhibition (IC50) (commonly the concentration at which inhibition is half-maximal) in test [2] came to 0.016 µM.

`CCCCc1nc2cnnc(O)c2n1Cc1ccc(-c2ccccc2C(=O)O)cc1`: the median effective dose (ED50) in test [1] is 6.7 mg/kg.

`CCCCc1nc(Cl)c(CO)n1Cc1ccc(-c2ccccc2-c2nnn[nH]2)cc1` had an ED50 in test [1] of 0.65 mg/kg.

In the case of `CCCCc1nc(C(=O)OCC)c(C(=O)OCC)n1Cc1ccc(-c2ccccc2-c2nn[nH]n2)cc1`, the half-maximal inhibitory concentration (IC50) in test [2] was determined as 0.255 µM.

`CCCCc1nc2cnncc2n1Cc1ccc(-c2ccccc2C(=O)O)cc1` yielded an ED50 in test [1] of 5.2 mg/kg. For the same molecule, the IC50 in test [2] was 10 µM.

Molecule `CCCCc1nc2cnnc(O)c2n1Cc1ccc(-c2ccccc2-c2nn[nH]n2)cc1` showed an ED50 in test [1] of 0.62 mg/kg. Moreover, the half-maximal inhibitory concentration (IC50) in test [2] stood at 0.022 µM.

`CCc1nc2c(C)cc(C)nc2n1Cc1ccc(-c2ccccc2-c2nn[nH]n2)cc1` came in with a 50% effective dose (ED50) in test [1] of 0.22 mg/kg.

For the molecule `CCCCc1nc2cnn(C)c(=O)c2n1Cc1ccc(-c2ccccc2C(=O)O)cc1`, in test [1], it took a dose of 47 mg/kg to reach the 50% effect level (ED50). The molecule further showed an IC50 in test [2] of 10 µM.

Consider `CCCCc1nc2cnn(Cc3ccc(-c4ccccc4C(=O)OC)cc3)cc-2n1`, for which, in test [2], the concentration for half-maximal inhibition (IC50) amounted to 100 µM.

As to `CCCCc1nc2c(=O)[nH][nH]c(=O)c2n1Cc1ccc(-c2ccccc2-c2nn[nH]n2)cc1`, it took a dose of 0.04 mg/kg to reach the 50% effect level in test [1] (ED50).
